Source: ChEMBL document CHEMBL1134339, “New 1-aryl-3-(4-arylpiperazin-1-yl)propane derivatives, with dual action at 5-HT1A serotonin receptors and serotonin transporter, as a new class of antidepressants” (J Med Chem, 2001)

Columns and labels:
Rattus norvegicus [1] = assay: Effect on helpless behavior in rats and the number of escape failures was determined in shuttle-box session-3 (SB-3) at 1 mg/kg dose; type: functional
Rattus norvegicus [2] = assay: Effect on helpless behavior in rats and the number of escape failures was determined in shuttle-box session-1 (SB-1) at 1 mg/kg dose; type: functional
Rattus norvegicus [3] = assay: Effect on helpless behavior in rats and the number of escape failures was determined in shuttle-box session-2 (SB-2) at 1 mg/kg dose; type: functional
Mus musculus [4] = assay: Antidepressant-like activity in the forced swimming test (FST) in mice at 10 mg/kg dose; type: functional
Mus musculus [5] = assay: Effect on immobility time in the forced swimming test (FST) in mice at 0 mg/kg dose; type: functional
Mus musculus [6] = assay: Time-dependent effect on 8-OH-DPAT-induced hypothermia (change in body temperature) after 60 min, in mice at 5 mg/kg dose; type: functional
[7] = target: T1, 5-hydroxytryptamine receptor 1A (Rattus norvegicus, UniProt P19327); assay: Binding affinity to 5-hydroxytryptamine 1A receptor (5-HT 1A receptor, serotonin receptor) from rat cortex using [3H]8-OH-DPAT as radioligand
T1 sequence (P19327 whole entry): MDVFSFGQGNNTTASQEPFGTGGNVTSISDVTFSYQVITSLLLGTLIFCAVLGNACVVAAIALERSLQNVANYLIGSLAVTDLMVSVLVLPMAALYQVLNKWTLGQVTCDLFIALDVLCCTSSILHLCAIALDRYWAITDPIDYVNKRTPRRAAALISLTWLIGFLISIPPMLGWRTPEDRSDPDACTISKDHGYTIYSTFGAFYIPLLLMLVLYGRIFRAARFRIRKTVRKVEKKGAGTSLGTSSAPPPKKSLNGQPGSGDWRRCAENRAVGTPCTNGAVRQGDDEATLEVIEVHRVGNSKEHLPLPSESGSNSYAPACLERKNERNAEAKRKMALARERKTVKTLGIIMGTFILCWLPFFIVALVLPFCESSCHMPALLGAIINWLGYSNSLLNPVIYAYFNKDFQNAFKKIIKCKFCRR

Mus musculus [8] = assay: Time-dependent effect on 8-OH-DPAT-induced hypothermia (change in body temperature) after 15 min, in mice at 5 mg/kg dose; type: functional
Mus musculus [9] = assay: Effect on immobility time in the forced swimming test (FST) in mice at 10 mg/kg dose; type: functional
Mus musculus [10] = assay: Time-dependent effect on 8-OH-DPAT-induced hypothermia (change in body temperature) after 15 min, in mice at 0.5 mg/kg dose; type: functional
Mus musculus [11] = assay: Time-dependent effect on 8-OH-DPAT-induced hypothermia (change in body temperature) after 60 min, in mice at 0.5 mg/kg dose; type: functional
Mus musculus [12] = assay: Effect on immobility time in the forced swimming test (FST) in mice at 1 mg/kg dose; type: functional
Mus musculus [13] = assay: Time-dependent effect on 8-OH-DPAT-induced hypothermia (change in body temperature) after 30 min, in mice at 0.5 mg/kg dose; type: functional
[14] = target: Sodium-dependent serotonin transporter (Rattus norvegicus, UniProt P31652); assay: Binding affinity towards Serotonin transporter from rat cortex measured using [3H]paroxetine
Mus musculus [15] = assay: Antidepressant-like activity in the forced swimming test (FST) in mice at 1 mg/kg dose; type: functional
Mus musculus [16] = assay: Time-dependent effect on 8-OH-DPAT-induced hypothermia (change in body temperature) after 30 min, in mice at 5 mg/kg dose; type: functional
Mus musculus [17] = assay: Time-dependent effect on 8-OH-DPAT-induced hypothermia (change in body temperature) after 15 min, in mice at 1 mg/kg dose; type: functional
Mus musculus [18] = assay: Time-dependent effect on 8-OH-DPAT-induced hypothermia (change in body temperature) after 60 min, in mice at 1 mg/kg dose; type: functional
Mus musculus [19] = assay: Time-dependent effect on 8-OH-DPAT-induced hypothermia (change in body temperature) after 30 min, in mice at 1 mg/kg dose; type: functional
Rattus norvegicus [20] = assay: Effect on helpless behavior in rats and the number of escape failures was determined in shuttle-box session-1 (SB-1) at 10 mg/kg dose; type: functional
Rattus norvegicus [21] = assay: Effect on helpless behavior in rats and the number of escape failures was determined in shuttle-box session-2 (SB-2) at 10 mg/kg dose; type: functional
Rattus norvegicus [22] = assay: Effect on helpless behavior in rats and the number of escape failures was determined in shuttle-box session-3 (SB-3) at 10 mg/kg dose; type: functional
Mus musculus [23] = assay: Effect on immobility time in the forced swimming test (FST) in mice at 0.1 mg/kg dose; type: functional
Mus musculus [24] = assay: Antidepressant-like activity in the forced swimming test (FST) in mice at 10 mg/kg dose; Antidepressant like activity; type: functional
[25] = target: T2, 5-hydroxytryptamine receptor 1A (Homo sapiens) (UniProt P08908); details: HeLa
T2 sequence (whole entry): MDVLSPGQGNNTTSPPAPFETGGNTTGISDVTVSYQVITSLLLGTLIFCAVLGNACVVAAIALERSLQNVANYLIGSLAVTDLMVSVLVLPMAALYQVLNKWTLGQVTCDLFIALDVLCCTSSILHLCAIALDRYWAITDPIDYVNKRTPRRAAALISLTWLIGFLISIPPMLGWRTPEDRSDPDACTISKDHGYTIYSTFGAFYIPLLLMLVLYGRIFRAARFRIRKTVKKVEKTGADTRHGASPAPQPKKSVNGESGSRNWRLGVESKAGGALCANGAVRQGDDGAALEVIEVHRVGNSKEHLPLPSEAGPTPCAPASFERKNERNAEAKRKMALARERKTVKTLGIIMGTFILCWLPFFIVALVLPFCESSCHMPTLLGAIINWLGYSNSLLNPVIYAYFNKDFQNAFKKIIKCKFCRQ
Description: Effect on Forskolin-Stimulated cAMP formation, in HeLa cells transfected with the 5-HT 1A receptor at 1 uM concentration

[26] = target: T2, 5-hydroxytryptamine receptor 1A (Homo sapiens); details: HeLa; remark: listed apart in the source
Description: Effect (1 uM) on Forskolin-Stimulated cAMP formation, in HeLa cells transfected with the 5-HT 1A receptor

[27] = target: T2, 5-hydroxytryptamine receptor 1A (Homo sapiens); assay: Percent increase in the Forskolin-Stimulated cAMP formation, in HeLa cells transfected with the 5-HT 1A receptor [compound (1 uM)]; type: functional, cell-based
[28] = target: T2, 5-hydroxytryptamine receptor 1A (Homo sapiens); assay: Percent increase in the Forskolin-Stimulated cAMP formation, in HeLa cells transfected with the 5-HT 1A receptor at 1 uM concentration; type: functional, cell-based
Mus musculus [29] = assay: Antidepressant-like activity in the forced swimming test (FST) in mice at 0.1 mg/kg dose; Antidepressant like activity; type: functional
Mus musculus [30] = assay: Antidepressant-like activity in the forced swimming test (FST) in mice at 1 mg/kg dose; Antidepressant like activity; type: functional
Mus musculus [31] = assay: Antidepressant-like activity in the forced swimming test (FST) in mice at 0.1 mg/kg dose; type: functional
Mus musculus [32] = assay: Effect on immobility time in the forced swimming test (FST) in mice at mg/kg dose; type: functional
[33] = target: T2, 5-hydroxytryptamine receptor 1A (Homo sapiens); assay: Effect on Forskolin-Stimulated cAMP formation, in HeLa cells transfected with the 5-HT 1A receptor at 10 uM concentration; type: functional, cell-based
[34] = target: T2, 5-hydroxytryptamine receptor 1A (Homo sapiens); assay: Percent increase in the Forskolin-Stimulated cAMP formation, in HeLa cells transfected with the 5-HT 1A receptor at 10 uM concentration; type: functional, cell-based
Mus musculus [35] = assay: Effect on immobility time in the forced swimming test (FST) in mice at 0.01 mg/kg dose; type: functional
Mus musculus [36] = assay: Antidepressant-like activity in the forced swimming test (FST) in mice at 0.01 mg/kg dose; Antidepressant like activity; type: functional
Rattus norvegicus [37] = assay: Effect on helpless behavior in rats and the number of escape failures was determined in shuttle-box session-1 (SB-1) at 30 mg/kg dose; type: functional
Rattus norvegicus [38] = assay: Effect on helpless behavior in rats and the number of escape failures was determined in shuttle-box session-2 (SB-2) at 30 mg/kg dose; type: functional
Rattus norvegicus [39] = assay: Effect on helpless behavior in rats and the number of escape failures was determined in shuttle-box session-3 (SB-3) at 30 mg/kg dose; type: functional

Chain of Sodium-dependent serotonin transporter (P31652 whole entry): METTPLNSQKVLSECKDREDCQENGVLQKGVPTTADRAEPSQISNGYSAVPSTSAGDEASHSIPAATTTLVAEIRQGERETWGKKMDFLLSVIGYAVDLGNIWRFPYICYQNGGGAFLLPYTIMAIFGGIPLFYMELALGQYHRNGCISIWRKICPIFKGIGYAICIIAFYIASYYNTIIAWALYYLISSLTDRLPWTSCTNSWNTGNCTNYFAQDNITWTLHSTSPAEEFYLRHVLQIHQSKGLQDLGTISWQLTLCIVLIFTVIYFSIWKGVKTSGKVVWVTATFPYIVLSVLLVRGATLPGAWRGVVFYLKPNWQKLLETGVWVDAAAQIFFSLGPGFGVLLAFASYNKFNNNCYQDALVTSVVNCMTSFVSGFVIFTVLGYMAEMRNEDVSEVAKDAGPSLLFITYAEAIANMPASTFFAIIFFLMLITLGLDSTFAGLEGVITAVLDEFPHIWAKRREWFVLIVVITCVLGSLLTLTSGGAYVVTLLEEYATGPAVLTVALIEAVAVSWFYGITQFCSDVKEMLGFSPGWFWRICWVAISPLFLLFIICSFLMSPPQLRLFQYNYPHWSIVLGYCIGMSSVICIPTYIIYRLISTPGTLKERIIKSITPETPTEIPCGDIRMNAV

SMILES	Immobility time (Mus musculus [5])	Temperature change (Mus musculus [6])	Temperature change (Mus musculus [8])	Immobility time (Mus musculus [9])	Temperature change (Mus musculus [10])	Temperature change (Mus musculus [11])	Immobility time (Mus musculus [12])	Temperature change (Mus musculus [13])	Ki ([14]; read-out: Ki)	Temperature change (Mus musculus [16])	Immobility time (Mus musculus [23])	Activity (Mus musculus [24])	Ki ([7]; read-out: Ki)	Activity (Mus musculus [29])	Activity (Mus musculus [30])	also measured
Fc1ccc([C@@H]2CCNC[C@H]2COc2ccc3c(c2)OCO3)cc1 [PAROXETINE]																No. of escape failures (Rattus norvegicus [1]): 2.2; No. of escape failures (Rattus norvegicus [2]): 3.3; No. of escape failures (Rattus norvegicus [3]): 3
COc1ccccc1N1CCN(CCC(O)c2cc(C)sc2C)CC1 (stereo unspecified)	124.3 s	-1.26 °C	-2.01 °C	103 s	-2.53 °C	-1.21 °C	111 s	-2.13 °C	115 nM	-1.86 °C						Activity (Mus musculus [4]): 20%; Ki [7]: 12 nM; Activity (Mus musculus [15]): 13%
COc1ccccc1N1CCN(CCN(C(=O)C2CCCCC2)c2ccccn2)CC1 [WAY-100,635]																Temperature change (Mus musculus [17]): <-0.71 °C; Temperature change (Mus musculus [18]): -0.35 °C; Temperature change (Mus musculus [19]): <-0.95 °C
CN(C)CCC=C1c2ccccc2CCc2ccccc21 [AMITRIPTYLINE]																No. of escape failures (Rattus norvegicus [20]): <9; No. of escape failures (Rattus norvegicus [21]): <3.3; No. of escape failures (Rattus norvegicus [22]): <1.2
COc1ccccc1N1CCN(CC/C(=N\O)c2ccc(C)s2)CC1	142.7 s	-0.94 °C	-1.41 °C	126.2 s	-2.12 °C	-1.11 °C	<79.2 s	-2.05 °C	65 nM	-1.31 °C	151.6 s	13%	130 nM	0%	51%	cAMP [25]: 7.4 pmol/well; cAMP [26]: 9.8 pmol/well; cAMP increase [27]: 33%; cAMP increase [28]: 25%
COc1ccccc1N1CCN(CCC(=O)c2ccsc2)CC1	170.1 s	-1.88 °C	-2.76 °C	<44.9 s	-2.52 °C	-1.48 °C	<118.8 s	-2.04 °C	112 nM	-2.18 °C	169.5 s		16 nM			Activity (Mus musculus [4]): 83%; Activity (Mus musculus [31]): 0%; Activity (Mus musculus [15]): 34%
COc1ccccc1N1CCN(CC/C(=N\O)c2csc3ccccc23)CC1	188.1 s	-1.31 °C	-2.77 °C	<102 s	-2.16 °C	-1.7 °C		-2.18 °C	95 nM	-2.99 °C	181.1 s	50%	60 nM	0%	22%	Immobility time (Mus musculus [32]): 150.1 s
C=C[C@@]1(C)CC(=O)[C@]2(O)[C@@]3(C)[C@@H](O)CCC(C)(C)[C@@H]3[C@H](O)[C@H](OC(C)=O)[C@@]2(C)O1																cAMP [33]: 29.7 pmol/well; Activity [34]: 100%
Oc1ccccc1N1CCN(CCC(O)c2csc3ccccc23)CC1 (stereo unspecified)	178 s	-1.32 °C	-3.17 °C	160.9 s	-2.54 °C	-1.38 °C	183.3 s	-2.01 °C	39 nM	-2.2 °C	<112.5 s	11%	18 nM	40%	0%	Immobility time (Mus musculus [35]): 186.1 s; Activity (Mus musculus [36]): 0%
CNCCC(Oc1ccc(C(F)(F)F)cc1)c1ccccc1 (stereo unspecified) [FLUOXETINE]																No. of escape failures (Rattus norvegicus [37]): 13; No. of escape failures (Rattus norvegicus [38]): <4; No. of escape failures (Rattus norvegicus [39]): <3.2
Oc1ccccc1N1CCN(CCC(O)c2ccc3ccccc3c2)CC1 (stereo unspecified)		-0.93 °C	-1.97 °C	24.4 s	-2.52 °C	-1.12 °C	178.3 s	-2.03 °C		-2.41 °C		93%		0%	0%	Ki [7]: 190 nM; Ki [14]: 190 nM
